Reference: ChEMBL document CHEMBL5143544, “Chemoenzymatic synthesis, computational investigation, and antitumor activity of monocyclic lankacidin derivatives” (Bioorg Med Chem, 2022)

Legend:
[1] = tested on: A549; experiment: Cytotoxicity against human A549 cells assessed as reduction in cell viability after 72 hrs by MTT assay; type: functional, cell-based; conditions: A549, 72 h
[2] = tested on: Micrococcus luteus; experiment: Antimicrobial activity against Micrococcus lutes assessed as reduction in microbial growth incubated for 24 hrs by agar dilution method; type: functional
[3] = tested on: HeLa; experiment: Cytotoxicity against human HeLa cells assessed as reduction in cell viability after 72 hrs by MTT assay; type: functional, cell-based
[4] = tested on: MCF7; experiment: cells; conditions: Homo sapiens, MCF7, 72 h
Description: Cytotoxicity against human MCF7 cells assessed as reduction in cell viability after 72 hrs by MTT assay

Row | SMILES | IC50 [1] [µM] | MIC [2] [µM] | IC50 [3] [µM] | IC50 [4] [µM]
1 | CC(=O)C(=O)N[C@@H]1/C=C(C)/C=C\[C@@H](O)C/C=C(C)/C=C/[C@@H](O)C[C@H]2OC(=O)[C@]1(C)C(=O)[C@@H]2C | > 100 | 6.2 | 23.3 | > 100
2 | CC(=O)O[C@@H]1/C=C/C(C)=C/C[C@H](O)/C=C/C(C)=C/[C@@H](NC(=O)[C@H](C)O)[C@]2(C)C(=O)O[C@H](C1)[C@@H](C)C2=O | > 100 | – | 48.2 | 47.1
3 | CC1=C\C[C@H](O)/C=C/C(C)=C/[C@@H](NC(=O)[C@H](C)O)[C@H](C)C(=O)/C(C)=C/C[C@H](O)\C=C\1 | > 100 | – | 13.3 | > 100
4 | CC(=O)C(=O)N[C@@H]1/C=C(C)/C=C/[C@@H](O)C/C=C(C)/C=C/[C@@H](O)C/C=C(\C)C(=O)[C@@H]1C | > 100 | – | > 100 | > 100
5 | CC1=C\C[C@H](O)/C=C/C(C)=C/[C@@H](NC(=O)[C@H](C)O)[C@]2(C)C(=O)O[C@H](C[C@H](O)\C=C\1)[C@@H](C)C2=O | > 100 | – | 24.8 | 75.7
6 | CC(=O)C(=O)N[C@@H]1/C=C(C)/C=C/[C@@H](O)C/C=C(C)/C=C/[C@@H](O)C/C=C(\C)C(=O)[C@H]1C | > 100 | – | 72.9 | > 100
7 | CC1=C\C[C@H](O)/C=C/C(C)=C/[C@@H](NC(=O)[C@H](C)O)[C@@H](C)C(=O)/C(C)=C/C[C@H](O)\C=C\1 | > 100 | – | 45.4 | 42.8
8 | O=c1[nH]cc(F)c(=O)[nH]1 [FLUOROURACIL] | 6.6 | – | 32.1 | 22.8
9 | CC(=O)O[C@H]1C(=O)[C@@]2(C)[C@H]([C@H](OC(=O)c3ccccc3)[C@]3(O)C[C@H](OC(=O)[C@H](O)[C@@H](NC(=O)c4ccccc4)c4ccccc4)C(C)=C1C3(C)C)[C@]1(OC(C)=O)CO[C@@H]1C[C@@H]2O [PACLITAXEL] | 0.0295 | – | < 0.00625 | > 0.0811
